Test results reported in ChEMBL document CHEMBL1201862, “PubChem BioAssay data set” (2004).
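Five compound concentrations were applied to cells in 96-well plates for 48 hours; endpoints were derived by simple linear interpolation of the resulting dose-response curve. GI50 is the concentration that inhibits growth by half.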 Active and inactive are the calls of the source. No stated cut-off is given here; in the data, active = GI50 up to about 1.1 µM and inactive = higher.

Experiments:
Assay in all cases: DTP human tumour cell line panel, 48 h
[1] = test system: A498
[2] = test system: CAKI-1
[3] = test system: RPMI-8226
[4] = test system: SF-295
[5] = test system: UACC-257
[6] = test system: OVCAR-5
[7] = test system: MCF7
[8] = test system: NCI-H460
[9] = test system: SNB-19
[10] = test system: NCI/ADR-RES
[11] = test system: HT-29
[12] = test system: HCT-116
[13] = test system: U-251
[14] = test system: 786-0
[15] = test system: OVCAR-4
[16] = test system: SK-MEL-5
[17] = test system: OVCAR-8
[18] = test system: IGROV-1
[19] = test system: NCI-H522
[20] = test system: HCC 2998

SMILES | GI50 [1] | GI50 [2] | GI50 [3] | GI50 [4] | GI50 [5] | GI50 [6] | GI50 [7] | GI50 [8] | GI50 [9] | GI50 [10] | GI50 [11] | GI50 [12] | GI50 [13] | GI50 [14] | GI50 [15] | GI50 [16] | GI50 [17] | GI50 [18] | GI50 [19] | GI50 [20]
COc1ccc(OC)c(C23CCCC(C2)N(C)CC3)c1 (configuration not stated) | 32.3 µM (inactive) | 46.5 µM (inactive) | 12.7 µM (inactive) | 38.5 µM (inactive) | 36.6 µM (inactive) | 40 µM (inactive) | 16.6 µM (inactive) | 19.2 µM (inactive) | 6.75 µM (inactive) | 60.3 µM (inactive) | 14.9 µM (inactive) | 13.8 µM (inactive) | 11.7 µM (inactive) | 25.3 µM (inactive) | 24.9 µM (inactive) | – | – | – | – | –
Cc1cc(C)n(C(=CC(=O)C(Cl)Cl)n2nc(C)cc2C)n1 | 53.1 µM (inactive) | 4.94 µM (inactive) | 0.871 µM (active) | 10.4 µM (inactive) | 1.32 µM (inactive) | 3.48 µM (inactive) | 3.94 µM (inactive) | 6.97 µM (inactive) | 10.7 µM (inactive) | 2.65 µM (inactive) | – | 1.76 µM (inactive) | 5.12 µM (inactive) | 2.07 µM (inactive) | > 100 µM (inactive) | 5.98 µM (inactive) | 2.25 µM (inactive) | 9.64 µM (inactive) | 1.79 µM (inactive) | –
CC1(C)C=[N+]([O-])C(C)(C)N1O | – | > 10 µM (inactive) | > 10 µM (inactive) | > 10 µM (inactive) | > 10 µM (inactive) | > 10 µM (inactive) | > 10 µM (inactive) | > 10 µM (inactive) | > 10 µM (inactive) | > 10 µM (inactive) | > 10 µM (inactive) | > 10 µM (inactive) | > 10 µM (inactive) | > 10 µM (inactive) | > 10 µM (inactive) | – | > 10 µM (inactive) | – | > 10 µM (inactive) | > 10 µM (inactive)
Nc1nc(Cl)cc(/N=N\c2ccccc2)n1 | 61.5 µM (inactive) | 37.6 µM (inactive) | 20.7 µM (inactive) | 30.7 µM (inactive) | 36.1 µM (inactive) | 72.1 µM (inactive) | 48.1 µM (inactive) | – | 45.8 µM (inactive) | 39.8 µM (inactive) | 31.3 µM (inactive) | 16.4 µM (inactive) | – | 30.6 µM (inactive) | – | 15.8 µM (inactive) | 33.2 µM (inactive) | 16.6 µM (inactive) | 30.6 µM (inactive) | –
Cc1cnoc1/N=C1\C=C(O)C(=O)c2ccccc21 | 29 µM (inactive) | 28.6 µM (inactive) | 15.4 µM (inactive) | 22.8 µM (inactive) | 16.3 µM (inactive) | 10.9 µM (inactive) | 4.26 µM (inactive) | 6.32 µM (inactive) | 16.3 µM (inactive) | 8.45 µM (inactive) | 29 µM (inactive) | 19.9 µM (inactive) | 1.79 µM (inactive) | 53.2 µM (inactive) | 20.4 µM (inactive) | 3.46 µM (inactive) | 25.8 µM (inactive) | 22.8 µM (inactive) | 34.5 µM (inactive) | –
COC(=O)c1ccc(/C=C2\Cc3ccccc3C2=O)cc1 | – | > 100 µM (inactive) | > 100 µM (inactive) | > 100 µM (inactive) | > 100 µM (inactive) | – | > 100 µM (inactive) | > 100 µM (inactive) | > 100 µM (inactive) | > 100 µM (inactive) | > 100 µM (inactive) | > 100 µM (inactive) | > 100 µM (inactive) | > 100 µM (inactive) | > 100 µM (inactive) | > 100 µM (inactive) | > 100 µM (inactive) | – | > 100 µM (inactive) | > 100 µM (inactive)
CO/N=C(/C)c1cccc(Nc2nc3ccc(Cl)cc3c3[nH]c4ccccc4c23)c1 | 4.29 µM (inactive) | 10.4 µM (inactive) | 3.2 µM (inactive) | 4.08 µM (inactive) | 14.5 µM (inactive) | 7.31 µM (inactive) | 10.3 µM (inactive) | 4.31 µM (inactive) | 15 µM (inactive) | 14.3 µM (inactive) | – | 4.21 µM (inactive) | 13.6 µM (inactive) | 6.79 µM (inactive) | – | 3.2 µM (inactive) | 8 µM (inactive) | 10.6 µM (inactive) | 4.75 µM (inactive) | –
CC(=O)OCC1OC(NC(=S)CCSc2nc3ccccc3c(=O)n2-c2ccccc2)C(OC(C)=O)C(OC(C)=O)C1OC(C)=O (configuration not stated) | – | > 100 µM (inactive) | > 100 µM (inactive) | 32.5 µM (inactive) | 30.4 µM (inactive) | 22.6 µM (inactive) | > 100 µM (inactive) | > 100 µM (inactive) | 34 µM (inactive) | > 100 µM (inactive) | > 100 µM (inactive) | 73.5 µM (inactive) | 38.1 µM (inactive) | 63.2 µM (inactive) | – | 45 µM (inactive) | > 100 µM (inactive) | 2.34 µM (inactive) | 25.6 µM (inactive) | 39.3 µM (inactive)
